Among the data in the Kinase Knowledgebase extract (Sharma et al. 2016) are IC50 values, retold here.

The term IC50 denotes the concentration at which inhibition is half-maximal.

Sequence of MAPK14 (human) (Q16539 whole entry, looked up): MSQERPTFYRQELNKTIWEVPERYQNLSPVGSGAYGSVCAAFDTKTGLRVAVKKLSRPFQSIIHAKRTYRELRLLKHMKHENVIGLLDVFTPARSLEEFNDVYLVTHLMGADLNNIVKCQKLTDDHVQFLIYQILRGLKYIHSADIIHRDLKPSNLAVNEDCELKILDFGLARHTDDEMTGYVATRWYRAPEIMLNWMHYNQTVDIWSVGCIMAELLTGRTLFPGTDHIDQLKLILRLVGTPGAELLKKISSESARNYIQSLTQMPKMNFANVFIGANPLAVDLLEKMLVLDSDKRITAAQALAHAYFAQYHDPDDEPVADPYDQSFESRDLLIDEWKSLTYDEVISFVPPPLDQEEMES

The assay has as its target MAPK14 (human) (UniProt Q16539). The assay can be described thus: Inhibition of MAPK14 Kinase Activity.
With `Cc1cc(CCCN(C)C)cc(C)c1N1C[C@@H](Cc2ccc(F)cc2F)C[C@@H](C)C1=O`, the IC50 was at most 10 µM. Turning to `O=C(O)CCCC(=O)Nc1cc(Cl)c(N2CC(Cc3ccc(F)cc3F)CCC2=O)c(Cl)c1` (centres undefined), the IC50 is at most 10 µM.

Take `O=C1CCC(Oc2ccccc2)CN1c1c(Cl)cccc1Cl` (centres undefined): the IC50 is at most 10 µM. The same measure for `O=C1CCC(Cc2ccccc2)CN1c1c(Cl)cccc1Cl` (centres undefined): at most 10 µM; for `Cc1ccc(OC2CCC(=O)N(c3c(Cl)cncc3Cl)C2)cc1` (centres undefined): at most 10 µM.

`O=C1CCC(Oc2ccc(Cl)cc2)CN1C1C(Cl)CCCC1Cl` (centres undefined) displayed a concentration for half-maximal inhibition (IC50) of at most 10 µM. The result for `O=C1CCC(Cc2cc(F)cc(F)c2)CN1C1C(Cl)CCCC1Cl` (centres undefined) reads at most 10 µM.

For `NC1CCC(Cl)C(N2CC(Sc3ccc(F)cc3F)CCC2=O)C1Cl` (centres undefined), the IC50 was at most 10 µM.

`O=C1CCC(Cc2ccc(F)cc2F)CN1c1c(Cl)cc(NCCn2ccnc2)cc1Cl` (centres undefined) gave an IC50 of at most 10 µM. The same measure for `COc1ccccc1CC1CCC(=O)N(c2c(Cl)cccc2Cl)C1` (centres undefined): at most 10 µM. Consider `Cc1ccc(OC2CCC(=O)N(c3c(Cl)csc3Cl)C2)cc1` (centres undefined), for which the IC50 is at most 10 µM. The same measure for `O=C1COC(Cc2ccc(F)cc2F)CN1c1c(Cl)cc(CO)cc1Cl` (centres undefined): at most 10 µM; for `CS(=O)(=O)Nc1ccc(Cl)c(N2CC(Cc3ccc(F)cc3F)CCC2=O)c1` (centres undefined): at most 10 µM. The result for `COc1ccc(OC2CCC(=O)N(c3c(Cl)ccnc3Cl)C2)cc1` (centres undefined) reads at most 10 µM; that for `O=C1CCC(Cc2ccc(F)cc2F)CN1c1c(Cl)ncc(CO)c1Cl` (centres undefined), at most 10 µM; that for `COc1ccccc1SC1CCC(=O)N(c2c(Cl)cccc2Cl)C1` (centres undefined), at most 10 µM.

Compound `O=C1CCC(Sc2ccc(F)cc2F)CN1C1C(Cl)CCC(CO)C1Cl` (centres undefined) registered an IC50 of at most 10 µM. The result for `O=C1CSC(Cc2ccc(F)cc2F)CN1c1c(Cl)ccc(CO)c1Cl` (centres undefined) reads at most 10 µM; that for `CCOC(=O)COc1ccccc1CC1CCC(=O)N(c2c(C)cccc2C)C1` (centres undefined), at most 10 µM.

As to `O=C1CCC(Oc2ccc(Cl)cc2Cl)CN1c1c(Cl)cncc1Cl` (centres undefined), the half-maximal inhibitory concentration (IC50) was at most 10 µM. For the compound `O=C1CCC(Sc2ccc(F)cc2F)CN1C1C(Cl)CCC(O)C1Cl` (centres undefined), the concentration for half-maximal inhibition (IC50) was at most 10 µM. The same measure for `O=C1CCC(Oc2ccc(F)cc2F)CN1C1C(Cl)CCCC1Cl` (centres undefined): at most 10 µM; for `Cc1cc(C)cc(SC2CCC(=O)N(c3c(Cl)csc3Cl)C2)c1` (centres undefined): at most 10 µM; for `Cc1cccc(C)c1N1CC(Cc2ccccc2OCC(C)C)CCC1=O` (centres undefined): at most 10 µM.

Consider `O=C(CNc1cc(Cl)c(N2CC(Cc3ccc(F)cc3F)CCC2=O)c(Cl)c1)NCCO` (centres undefined), for which the IC50 is at most 10 µM. The same measure for `O=C(Cc1ccccc1)Nc1sc(Cl)c(N2CC(Sc3ccc(F)cc3F)CCC2=O)c1Cl` (centres undefined): at most 10 µM; for `Nc1cc(Cl)c(N2CC(Oc3ccc(F)cc3F)CCC2=O)c(Cl)c1` (centres undefined): at most 10 µM. The result for `O=C1CSC(Cc2ccc(F)cc2F)CN1c1c(Cl)cccc1Cl` (centres undefined) reads at most 10 µM; that for `Cc1cc(CN)cc(C)c1N1CC(Cc2ccc(F)cc2F)CCC1=O` (centres undefined), at most 10 µM.

Take `O=C(Cc1ccccc1)Nc1ccc(Cl)c(N2CC(Cc3ccc(F)cc3F)SCC2=O)c1Cl` (centres undefined): the IC50 is at most 10 µM. The compound `O=C1CCC(Cc2ccccc2)CN1C1C(Cl)CCCC1Cl` (centres undefined) gave an IC50 of at most 10 µM. The result for `Cc1ccccc1CC1CSC(=O)N(c2c(Cl)cccc2Cl)C1` (centres undefined) reads at most 10 µM. The same measure for `O=C1CCC(Oc2ccc3ccccc3c2)CN1C1C(Cl)CCCC1Cl` (centres undefined): at most 10 µM; for `Cc1cc(C)cc(CC2CSC(=O)N(c3c(Cl)cccc3Cl)C2)c1` (centres undefined): at most 10 µM; for `Cc1ccccc1CC1CCC(=O)N(C2C(Cl)CCCC2Cl)C1` (centres undefined): at most 10 µM. The compound `O=C1CCC(Oc2ccccc2Cl)CN1c1c(Cl)ccnc1Cl` (centres undefined) came in with an IC50 of at most 10 µM. `O=C1CCC(Cc2ccc(F)cc2F)CN1c1c(Cl)csc1Cl` (centres undefined) returned an IC50 of at most 10 µM.

In the case of `CC(C)(C)OC(=O)N(Cc1ccccn1)c1cc(Cl)c(N2CC(Cc3ccc(F)cc3F)CCC2=O)c(Cl)c1` (centres undefined), the IC50 is at most 10 µM. For the compound `CC(=O)NC1CC(Cl)C(N2CC(Oc3ccc(F)cc3F)CCC2=O)C(Cl)C1` (centres undefined), the IC50 was at most 10 µM. Compound `Cc1cc(C)cc(CC2CNC(=O)N(c3c(Cl)cccc3Cl)C2)c1` (centres undefined) yielded an IC50 of at most 10 µM. `Cc1ccc(CC2CN(c3c(Cl)cccc3Cl)C(=O)CO2)c(C)c1` (centres undefined) yielded an IC50 of at most 10 µM. The result for `O=C1CSC(Cc2ccc(F)cc2F)CN1c1c(Cl)cc(CO)cc1Cl` (centres undefined) reads at most 10 µM; that for `Cc1ccc(CC2CCC(=O)N(c3c(Cl)csc3Cl)C2)cc1` (centres undefined), at most 10 µM; that for `CNc1cc(Cl)c(N2CC(Cc3ccc(F)cc3F)CCC2=O)c(Cl)n1` (centres undefined), at most 10 µM.

`Cc1ccccc1CC1CN(c2c(Cl)cccc2Cl)C(=O)CO1` (centres undefined) displayed an IC50 of at most 10 µM. The result for `COc1ccccc1CC1CCC(=O)N(c2c(Cl)csc2Cl)C1` (centres undefined) reads at most 10 µM; that for `O=C1CCC(Cc2ccccc2F)CN1c1c(Cl)csc1Cl` (centres undefined), at most 10 µM. Turning to `COc1ccccc1OC1CCC(=O)N(C2C(Cl)CCCC2Cl)C1` (centres undefined), the IC50 is at most 10 µM. The same measure for `N[C@@H](CO)C(=O)Nc1cc(Cl)c(N2CC(Cc3ccc(F)cc3F)CCC2=O)c(Cl)c1` (some centres undefined): at most 10 µM.
